In assay [1] the target is Glutathione-S-transferase (Schistosoma japonicum, UniProt Q26513). Put plainly: GST-antibody interaction or FRET quenching – biochemical, TR-FRET, artefact control for Vif-APOBEC3G degradation inhibitor project, dose response (AID 1117362). It is filed as functional.
The target in assay [2] is Eukaryotic translation initiation factor 4E (Mus musculus, UniProt P63073). Put plainly: blockers of eIF4G binding by eIF4E – biochemical, TR-FRET, dose response (AID 855).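 Note: potency for disrupting eIF4E binding to eIF4GI seen as loss of FRET.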 It is filed as functional.
Another assay has as its target Kallikrein-7 (Homo sapiens, UniProt P49862). Put plainly: Fluorescence Intensity-based biochemical primary high throughput dose response assay to identify activators of kallikrein-7 (K7) zymogen.
The nature of assay [3]: lung carcinoma cell viability loss – CellTiter-Glo luminescence, dry powder, set 17, dose response (AID 1117284). It is filed as functional, cell-based. Conditions: A549. Background: ATP-based viability assays read luminescence as a measure of living cells.
Assay [4] can be described thus: inhibitors of orthopox intermediate gene expression, dose response, cell-based, single fluorophore reporter, dry powder (AID 1117271). It is filed as functional.
Assay [5] can be described thus: Orthopox viral replication plaque formation Measured in Cell-Based and Microorganism Combination System Using Imaging - 2142-05_Inhibitor_Dose_DryPowder_Activity. The format is functional.
Assay [6] is described as follows: Single fluorophore orthopox expression reporter, late gene expression Measured in Cell-Based and Microorganism Combination System Using Plate Reader - 2142-08_Inhibitor_Dose_DryPowder_Activity. It is filed as functional.
The nature of assay [7]: Late stage assay provider results from the probe development effort to identify inhibitors of the Plasmodium falciparum M18 Aspartyl Aminopeptidase (M18AAP): radiolabel-based cell-based dose response assay to identify compounds that inhibit P. falciparum growth in RBCs, Set 2.. The format is functional.
A short description of assay [8]: IC50 of insulin release inhibition, rat insulinoma INS-1E line, 5 mM glucose, cell-based (AID 1117331). The format is functional.
Another assay in a line: cells. The conditions noted are these: INS-1E. It is filed as functional, cell-based.
Assay [9] is described as follows: IGROV1 cell killing – plate reader, dry powder samples, PAX8 inhibitor project, dose response (AID 743043). The conditions noted are these: IGROV-1. The format is functional, cell-based.
A further assay concerns the target Paired box protein Pax-8 (Homo sapiens, UniProt Q06710). Put plainly: PAX8 transcriptional activity inhibition in RMG-I – RMG-I cells, luciferase, cherry-pick, dose response (AID 687027).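 Note: luciferase reporter driven by Pax8 target thyroperoxidase promoter measured by SteadyGlo luminescence.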 The format is functional, cell-based.
Assay [10] in a line: toxicity toward immortalized ovarian surface epithelium – cell-based, plate reader, dry powder samples, cytotoxicity control for PAX8 inhibitor project, dose response (AID 743045). The format is functional.
A short description of assay [11]: OVCAR-3 cell viability loss – plate reader, dry powder samples, PAX8 inhibitor project, dose response (AID 743044). It is filed as functional, cell-based.
The test system of assay [12] is BJ. Put plainly: BJ-TERT fibroblast viability loss – cell-based, RAS-independent, luminescence, dose response (AID 1933). It is filed as functional. Conditions: Homo sapiens.
Assay [13] can be described thus: DRD fibroblast viability loss – cell-based, non-viral oncogenic, luminescence, dose response (AID 1934). It is filed as functional. The conditions noted are these: Homo sapiens.
Assay [14] can be described thus: rise of 4N DNA cells, HeLa – IC50, dose response (AID 1117351). The format is functional, cell-based.
In assay [15] the test system is BJ. Put plainly: cells. The format is functional, cell-based. The conditions noted are these: Homo sapiens.
A short description of assay [16]: RKO cell viability reduction, dose response, CellTiter-Glo luminescence (AID 1117322). It is filed as functional.
The nature of assay [17]: HCT116 cell viability decrease, GSK3B pretreatment – CellTiter-Glo, IC50, dose response (AID 1117339). It is filed as functional. The conditions noted are these: HCT-116.
Assay [18] in a line: cytotoxicity toward HT-29 cells – cell-based, CellTiter-Glo luminescence, IC50, dose response (AID 1117330). The format is functional.
Assay [19] can be described thus: cytotoxicity toward Colo320 cells – cell-based, CellTiter-Glo luminescence, IC50, dose response (AID 1117334). It is filed as functional. The conditions noted are these: COLO 320.
A short description of assay [20]: Reduced DLD-1 viability, concentration-response, CellTiter-Glo luminescence (AID 1117352). It is filed as functional.
Assay [21] can be described thus: CellTiter-Glo luminescence survival assay, SW480 colon tumor line, concentration-response curve, half-maximal inhibitory concentration (AID 1117338). It is filed as functional.
The subject of assay [22] is BJ. Put plainly: BJ-TERT-LT-ST fibroblast viability loss – cell-based, RAS-independent, luminescence, dose response (AID 1935).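 Note: BJ fibroblasts immortalized with TERT plus LT and ST oncogenes.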 It is filed as functional. The conditions noted are these: Homo sapiens.
Assay [23] in a line: SNU-C1 cell viability reduction, dose response, CellTiter-Glo luminescence (AID 1117323). It is filed as functional, cell-based.
Assay [24] in a line: rise of 2N DNA cells, HeLa – IC50, dose response (AID 1117349). The format is functional, cell-based.
In assay [25] the test system is BJ. Put plainly: growth inhibition of engineered Ras-driven BJ cells – cell-based, alamar blue fluorescence, cherrypicked samples, dose response (AID 2631).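 Note: confirmatory dose-response assay in RAS-dependent BJ fibroblasts engineered with TERT, LT and ST, with cytotoxicity read by fluorescence.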 It is filed as functional. Conditions: Homo sapiens. A general note: Resazurin is reduced to fluorescent resorufin, in cell work by metabolically active cells.
Assay [26] in a line: cytotoxicity toward HCT116 cells – cell-based, CellTiter-Glo luminescence, IC50, dose response (AID 1117332). It is filed as functional. The conditions noted are these: HCT-116.

The source of these data is ChEMBL document CHEMBL1201862, “PubChem BioAssay data set” (2004).

Calls of active or inactive are those of the source.

Eukaryotic translation initiation factor 4E, sequence (P63073 whole entry): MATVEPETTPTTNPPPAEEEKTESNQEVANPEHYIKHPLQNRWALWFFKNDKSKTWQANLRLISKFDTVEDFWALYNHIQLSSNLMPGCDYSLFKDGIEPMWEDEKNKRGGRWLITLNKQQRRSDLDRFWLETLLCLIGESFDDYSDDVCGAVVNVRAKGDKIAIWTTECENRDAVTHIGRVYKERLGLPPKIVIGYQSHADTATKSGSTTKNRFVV
Glutathione-S-transferase, sequence (Q26513 whole entry): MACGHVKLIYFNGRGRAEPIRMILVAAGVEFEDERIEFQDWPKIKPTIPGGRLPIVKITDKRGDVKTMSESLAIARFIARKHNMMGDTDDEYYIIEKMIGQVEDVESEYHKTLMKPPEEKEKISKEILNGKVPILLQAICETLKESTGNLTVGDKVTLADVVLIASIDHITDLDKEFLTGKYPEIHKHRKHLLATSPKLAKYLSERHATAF
Paired box protein Pax-8, sequence (Q06710 whole entry): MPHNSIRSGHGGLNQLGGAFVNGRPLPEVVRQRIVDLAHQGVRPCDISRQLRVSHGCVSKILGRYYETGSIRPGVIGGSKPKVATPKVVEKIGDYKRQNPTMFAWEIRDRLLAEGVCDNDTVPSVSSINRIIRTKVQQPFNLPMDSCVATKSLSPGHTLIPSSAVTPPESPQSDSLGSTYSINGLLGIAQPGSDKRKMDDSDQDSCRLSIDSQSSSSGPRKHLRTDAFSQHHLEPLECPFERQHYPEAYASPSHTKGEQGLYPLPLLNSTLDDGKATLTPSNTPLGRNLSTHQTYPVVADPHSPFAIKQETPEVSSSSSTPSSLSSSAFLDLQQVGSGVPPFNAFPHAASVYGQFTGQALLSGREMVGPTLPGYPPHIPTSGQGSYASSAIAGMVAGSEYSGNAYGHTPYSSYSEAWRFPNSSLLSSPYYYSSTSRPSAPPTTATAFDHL
Kallikrein-7, sequence (P49862 whole entry): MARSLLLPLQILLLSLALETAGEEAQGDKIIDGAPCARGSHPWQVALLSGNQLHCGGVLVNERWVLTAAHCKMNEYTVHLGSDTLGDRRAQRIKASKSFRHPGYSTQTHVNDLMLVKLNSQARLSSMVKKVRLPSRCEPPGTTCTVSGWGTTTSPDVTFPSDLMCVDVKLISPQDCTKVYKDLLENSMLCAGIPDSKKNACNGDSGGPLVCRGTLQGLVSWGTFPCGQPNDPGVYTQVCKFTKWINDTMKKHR

Regarding `CN(C)[C@@H]1C(=O)C(C(=O)NCN2CCCC2)=C(O)[C@@]2(O)C(O)=C3C(=O)c4c(O)cccc4[C@@](C)(O)C3CC12` (some centres undefined), the IC50 (as a rule, the point on the concentration scale where inhibition reaches its midpoint) was > 100 µM (active) in assay [1] and 12.3 µM (active) in [2].
For the compound `CN(C)c1ccc(-c2cccc3nccn23)cc1`, the EC50 – broadly, the concentration needed to bring the measured effect to its halfway point – at Kallikrein-7 was > 69.5 µM (inactive).
In the case of `Cc1ccccc1-c1ccc(CN(C)C[C@@H]2Oc3cc(C#C[C@@H](C)O)ccc3S(=O)(=O)N([C@@H](C)CO)C[C@@H]2C)cc1`, the half-maximal activity concentration (AC50) (in general, the concentration at which the activity in the assay is half-maximal) in assay [3] is 34.6 µM (active); in assay [4], 1.65 µM (active); in assay [5], 2 µM (active); in assay [6], 768 nM (active).
As to `Oc1ccc(C2CCCN(c3ccnc4ccccc34)C2)cc1O` (centres undefined), the IC50 in assay [7] is 4.2 µM (active).
For `CC(C)(C)c1nnc(NS(=O)(=O)c2ccccc2)s1` [GLYBUZOLE], the IC50 in assay [8] was 13.1 µM (inactive); in “cells”, > 33.3 µM (inactive).
For `C[C@@H]1CN([C@H](C)CO)C(=O)c2cc(NC(=O)Nc3ccccc3)ccc2O[C@@H](C)CCCCO[C@H]1CN(C)Cc1ccc(C(F)(F)F)cc1`, the AC50 in [9] was 36.2 µM (active); at Paired box protein Pax-8 it was 10.9 µM (active); in [10], 31.7 µM (active); in assay [11], 24.2 µM (active).
As to `COCc1c(C(C)C)nc(C(C)C)c(/C=C/[C@@H](O)C[C@@H](O)CC(=O)O)c1-c1ccc(F)cc1` [CERIVASTATIN SODIUM], the EC50 is 339 nM (inconclusive) in the assay on BJ [12]; 338 nM (inconclusive) in assay [13]; 347 nM (inconclusive) in the assay on BJ [15]; 356 nM (inconclusive) in the assay with BJ [22]; < 104 nM (active) in the assay on BJ [25]. Also, the IC50 in [14] was > 10 µM (inactive); in [16] it was 1.01 µM (active); in [17], 52.9 nM (active); in assay [18], 1.21 µM (active); in [19], 1.92 µM (active); in [20], 2.51 µM (active). For the same compound, the IC50 was 143 nM (active) in assay [21], 1.87 µM (active) in assay [23], > 10 µM (inactive) in assay [24] and 240 nM (active) in assay [26].
